One data set has as its system PDE7. As to conditions: cited from earlier work.
The target of the next data set is T1, PDE7A (Homo sapiens, UniProt Q13946).
T1 construct: purchased BPS Bioscience 60373
Nature of the data set: In vitro PDE7A inhibitory activity assay (fluorescence polarization PDE7A Assay Kit, BPS Bioscience). Type of data set: biochemical. The conditions noted are these: for IC50: fluorescence polarization kit. As to the method:
The inhibitory activity of the compounds was determined as half maximal inhibitory concentration IC50 in μM ([Malik et al., 2008]; [Pekkinen et al., 2008]).
All the newly synthesized compounds 4a-h and 5a-h were evaluated for in vitro PDE7A inhibitory activity using a fluorescence polarization PDE7A Assay Kit (Catalog no. 60373; BPS Bioscience) ([Malik et al., 2008]; [Pekkinen et al., 2008]). The assay is based on the binding of fluorescent nucleotide, a monophosphate generated by PDE7A to the binding agent. PDE7A catalyzes the hydrolysis of the phosphodiester bond in dye-labeled cyclic adenosine monophosphate (cAMP). Nanoparticle beads selectively bind the phosphate group in the nucleotide product. This increases the size of the nucleotide relative to unreacted cAMP. Since the degree of polarization of a fluorophore is inversely related to its molecular rotation, dyes attached to the slowly rotating nucleotide-bead complexes will not have time to reorient and therefore will emit highly polarized light. Conversely, dyes attached to the rapidly rotating cyclic monophosphates will obtain random orientations and emit light with low polarization.
The PDE7A inhibitor screening assay kit comes in a convenient 384-well format, including purified PDE7A enzyme, fluorescently labeled PDE7A substrate (cAMP), binding agent, and PDE assay buffer for 384 enzyme reactions. The key to the PDE7A Assay Kit is the specific binding agent. Using this kit, only two simple steps on a microtiter plate are required for PDE7A reactions. First, the fluorescently labeled cAMP is incubated with a sample containing PDE7A for 1 h. Second, a binding agent is added to the reaction mix to produce a change in fluorescent polarization that can then be measured using a fluorescence reader. The microtiter plate reader is capable of excitation at wavelengths ranging from 485 ± 15 nm and detection of emitted light ranging from 528 ± 10 nm. […] The inhibitory activity of the tested compounds was determined as half maximal inhibitory concentration IC50 in μM compared to the two reference standards.
This in vitro testing assay was carried out at the confirmatory diagnostic unit, Vacsera, Egypt, and the results are presented in Table 1 and represented in Figure 2. […] Halogen atoms are lipophilic substituents commonly used in the design of novel biologically active molecules.
A general note: In fluorescence polarisation assays a small probe gives low polarisation when free and higher when bound to something large.

Entries after “also recorded” stand apart in the source; their conditions may differ. Where two headings read alike, the source gives them in different places.

T1 sequence (Q13946 whole entry): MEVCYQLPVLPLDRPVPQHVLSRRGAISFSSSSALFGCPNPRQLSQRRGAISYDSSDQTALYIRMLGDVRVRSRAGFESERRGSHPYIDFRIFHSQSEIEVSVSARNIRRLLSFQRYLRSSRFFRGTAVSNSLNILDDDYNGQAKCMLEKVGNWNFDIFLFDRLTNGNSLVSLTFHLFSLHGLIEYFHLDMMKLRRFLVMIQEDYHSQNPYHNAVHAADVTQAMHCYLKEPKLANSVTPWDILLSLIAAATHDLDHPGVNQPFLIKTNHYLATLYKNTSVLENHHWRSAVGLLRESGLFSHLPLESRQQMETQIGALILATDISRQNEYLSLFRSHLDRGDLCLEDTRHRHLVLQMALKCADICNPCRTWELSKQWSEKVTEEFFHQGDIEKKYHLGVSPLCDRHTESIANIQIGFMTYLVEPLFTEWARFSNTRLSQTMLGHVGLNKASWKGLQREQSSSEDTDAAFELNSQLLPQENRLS

As to `O=c1[nH]c(=S)[nH]c2cc(F)c(F)cc12` [A], the IC50 (as a rule, the concentration at which inhibition is half-maximal) in the data set on PDE7 (ref Elfeky et al., 2020) was 70 nM.

`Cc1ccc([N+](=O)[O-])cc1S(=O)(=O)N(C)C` [BRL50481, reference compound] gave an IC50 on PDE7A of 0.034 µM.

For `Cn1c(-c2ccoc2)nc(=O)c2ccccc21` [B], the IC50 in the data set on PDE7 (ref Elfeky et al., 2020) is 90 nM.

As for `CC(C)c1nc(SCc2ccc(-c3ccccc3-c3nnn[nH]3)cc2)c2ccccc2n1` [C], the IC50 in the data set with PDE7 (ref Sánchez et al., 2013) is 770 nM.

`OCc1ccc(C=NNc2nc(Cl)nc3ccccc23)o1` [Compound 4a, 2-Chloro-4-[2-(5-hydroxymethyl-2-furylmethylene)hydrazino]quinazoline]: the melting point – broadly, the temperature of the solid-liquid transition – is > 280 °C. On PDE7A, the “PDE7A inhibitory activity (result in words)” value (“PDE7A inhibitory activity” for short) was “among the least effective compounds” and half-maximal inhibition (IC50) was put at 0.653 µM.

Turning to `Clc1nc(NN=Cc2cccnc2)c2ccccc2n1` [Compound 4b, 2-Chloro-4-[2-(3-pyridylmethylene)hydrazino]quinazoline], the melting point is < 280 °C. For the same compound, at PDE7A, the “PDE7A inhibitory activity” value was “good potency; also recorded: high PDE7 inhibitory potencies; also recorded: highest selective PDE7A inhibitors” and half-maximal inhibition (IC50) was put at 0.114 µM.

In the case of `Clc1nc(NN=Cc2c[nH]c3ccc(Br)cc23)c2ccccc2n1` [Compound 4c, 4-[2-(5-bromo-1H-3-indolylmethylene)hydrazino]-2-chloroquinazoline], the melting point lay in the range of 238 to 240 °C. Besides, at PDE7A, the IC50 amounted to 0.478 µM.

Regarding `Clc1nc(NN=Cc2ccnc3ccccc23)c2ccccc2n1` [Compound 4d, 2-Chloro-4-[2-(4-quinolinylmethylene)hydrazino]quinazoline], the melting point lay within 205 to 207 °C. In addition, the IC50 on PDE7A was 0.249 µM.

`OCc1ccc(C=NNc2nc(Cl)nc3ccc(Cl)cc23)o1` [Compound 4e, 2,6-Dichloro-4-[2-(5-hydroxymethyl-2-furylmethylene)hydrazino]quinazoline]: the melting point was < 280 °C. At PDE7A, the “PDE7A inhibitory activity” value is on record as “among the least effective compounds” and 1.97 µM corresponded to half-maximal inhibition (IC50).

`Clc1ccc2nc(Cl)nc(NN=Cc3cccnc3)c2c1` [Compound 4f, 2,6-Dichloro-4-[2-(3-pyridylmethylene)hydrazino]quinazoline] registered a melting point of 198 to 200 °C. Also, at PDE7A, the “PDE7A inhibitory activity” value is given as “high PDE7 inhibitory potencies” and 0.343 µM corresponded to half-maximal inhibition (IC50).

Take `Clc1ccc2nc(Cl)nc(NN=Cc3c[nH]c4ccc(Br)cc34)c2c1` [Compound 4g, 4-[2-(5-bromo-1H-3-indolylmethylene)hydrazino]-2,6-dichloroquinazoline]: the melting point was < 280 °C. Besides, at PDE7A, the “PDE7A inhibitory activity” value is given as “good potency; also recorded: good activity” and half-maximal inhibition (IC50) was put at 0.15 µM.

Take `Clc1ccc2nc(Cl)nc(NN=Cc3ccnc4ccccc34)c2c1` [Compound 4h, 2,6-Dichloro-4-[2-(4-quinolinylmethylene)hydrazino]quinazoline]: the melting point is < 280 °C. At PDE7A, the “PDE7A inhibitory activity” value is listed as “very low PDE7 inhibitory effect” and the midpoint of inhibition, the IC50, lay at 0.627 µM.

Regarding `OCc1ccc(-c2nnc3c4ccccc4nc(Cl)n23)o1` [Compound 5a, 5-Chloro-3-(5-hydroxymethyl-2-furyl)-1,2,4-triazolo[4,3-c]quinazoline], the melting point was > 280 °C. This compound returned an IC50 at PDE7A of 0.251 µM.

`Clc1nc2ccccc2c2nnc(-c3cccnc3)n12` [Compound 5b, 5-Chloro-3-(3-pyridyl)-1,2,4-triazolo[4,3-c]quinazoline]: the melting point is > 280 °C. For the same compound, on PDE7A, the “PDE7A inhibitory activity” value is “high PDE7 inhibitory potencies” and the IC50 is 0.32 µM.

On to `Clc1nc2ccccc2c2nnc(-c3c[nH]c4ccc(Br)cc34)n12` [Compound 5c, 3-(5-Bromo-3-indolyl)-5-chloro-1,2,4-triazolo[4,3-c]quinazoline], for which the melting point is 200 to 202 °C. Further, on PDE7A, the “PDE7A inhibitory activity” value is recorded as “good potency; also recorded: good activity” and the midpoint of inhibition, the IC50, lay at 0.18 µM.

The compound `Clc1nc2ccccc2c2nnc(-c3ccnc4ccccc34)n12` [Compound 5d, 5-Chloro-3-(4-quinolinyl)-1,2,4-triazolo[4,3-c]quinazoline] showed a melting point of 220 to 222 °C. Further, at PDE7A, the “PDE7A inhibitory activity” value is reported as “very low PDE7 inhibitory effect” and the IC50 worked out at 0.894 µM.

As to `OCc1ccc(-c2nnc3c4cc(Cl)ccc4nc(Cl)n23)o1` [Compound 5e, 5,9-Dichloro-3-(5-hydroxymethyl-2-furyl)-1,2,4-triazolo[4,3-c]quinazoline], the melting point was < 280 °C. In addition, on PDE7A, the “PDE7A inhibitory activity” value is “among the least effective compounds” and the IC50 is 1.34 µM.

For the compound `Clc1ccc2nc(Cl)n3c(-c4cccnc4)nnc3c2c1` [Compound 5f, 5,9-Dichloro-3-(3-pyridyl)-1,2,4-triazolo[4,3-c]quinazoline], the melting point is 219 to 221 °C. In addition, on PDE7A, the “PDE7A inhibitory activity” value is reported as “good potency; also recorded: high PDE7 inhibitory potencies; also recorded: highest selective PDE7A inhibitors” and the IC50 came to 0.142 µM.

As for `Clc1ccc2nc(Cl)n3c(-c4c[nH]c5ccc(Br)cc45)nnc3c2c1` [Compound 5g, 3-(5-Bromo-3-indolyl)-5,9-dichloro-1,2,4-triazolo[4,3-c]quinazoline], the melting point is > 280 °C. For the same compound, on PDE7A, the “PDE7A inhibitory activity” value is on record as “good activity” and the midpoint of inhibition, the IC50, lay at 0.407 µM.

Regarding `Clc1ccc2nc(Cl)n3c(-c4ccnc5ccccc45)nnc3c2c1` [Compound 5h, 5,9-Dichloro-3-(4-quinolinyl)-1,2,4-triazolo[4,3-c]quinazoline], the melting point was < 280 °C. Moreover, at PDE7A, the “PDE7A inhibitory activity” value is given as “very low PDE7 inhibitory effect” and the IC50 came out at 1.8 µM.

As for `CC(C)c1nc(SCc2ccc(-c3ccc(C(=O)O)cc3)cc2)c2ccccc2n1` [D], the IC50 in the data set with PDE7 (ref Sánchez et al., 2013) was 930 nM.

These data come from paper PMC11070508, “Design, synthesis, molecular docking, and molecular dynamic studies of novel quinazoline derivatives as phosphodiesterase 7 inhibitors” (Frontiers in Pharmacology, 2024).
